According to patent US9302996B2, “Continuous arycyclic compound” (MITSUBISHI TANABE PHARMA CORPORATION, priority 2010, dated 2016):

Assays:
ICR mice = assay: Triglyceride (TG) in blood plasma increase-inhibiting action due to lipid administration; format: in vivo; details: Mus musculus; male ICR mice, 5 mg/kg oral, lipid (Intralipos 20%) after 30 minutes, plasma TG 2 hours after lipid; read-out: Inhibiting rate of TG-increase in blood plasma (5 mg/kg)
Method: 6 to 9 weeks-old male ICR mice were fasted overnight, and Test compound suspended in 0.2% carboxymethyl cellulose solution was orally administered to the mice. A lipid (Intralipos 20%, OTSUKA PHARMACEUTICAL CO., LTD., 10 mL/kg) was orally administered after 30 minutes. Blood was collected from tail vein immediately before the lipid administration, and after 2 hours from the same to obtain blood plasma. Measurement of TG in blood plasma was carried out by using a triglyceride E Test Wako (Wako Pure Chemical Industries, Ltd.), and an increased value of TG in blood plasma by administration of the lipid was calculated. An increased value of TG in blood plasma in a solvent control group was used as a control, and an inhibiting rate in increase of TG in blood plasma in the Test compound administered group was calculated.

C57BL/6J mice = assay: Antifeeding activity (high fat diet intake up to 4 hours); format: in vivo; details: Mus musculus, male C57BL/6J mice, 5 mg/kg oral, food ingested up to 4 hours, read-out: Antifeeding rate (5 mg/kg)
Method: 7 to 10 weeks-old male C57BL/6J mice were fasted overnight, and the test compound suspended in 0.2% carboxymethylcellulose solution was orally administered. Immediately after the administration, high fat diet (Oriental Yeast Co., Ltd, 60 cal % fat) was provided and freely fed. An amount of food ingested up to 4 hours was measured, and a lowering rate (an antifeeding rate) of the amount of food ingested in the Test compound administered group was calculated as compared to that of the solvent control group as a control.

Structure (SMILES): CC(C)(COc1cnc(-c2ccc(-c3ncc(C(F)(F)F)[nH]3)c(F)c2)cn1)C(=O)O [Example 91]
- inhibition in vivo at 5 mg/kg (ICR mice): 51%
- inhibition in vivo at 5 mg/kg (C57BL/6J mice): 51%

Structure (SMILES): CC(C)c1cnc(-c2ccc(-c3ccc(OCC(C)(C)C(=O)O)cc3)nc2)[nH]1 [Example 28]
- inhibition in vivo at 5 mg/kg (ICR mice): 59%
- inhibition in vivo at 5 mg/kg (C57BL/6J mice): 54%

Structure (SMILES): CC(C)(COc1ccc(-c2ccc(-c3ncc(C(F)(F)F)[nH]3)nc2)cc1)C(=O)O [Example 68]
- inhibition in vivo at 5 mg/kg (ICR mice): 64%
- inhibition in vivo at 5 mg/kg (C57BL/6J mice): 63%

Structure (SMILES): CCc1cnc(-c2ccc(-c3ccc(OCC(C)(C)C(=O)O)cc3)nc2)[nH]1 [Example 58-2), 3-[4-[5-(5-ethyl-1H-imidazol-2-yl)-2-pyridyl]phenoxy]-2,2-dimethylpropanoic acid]
- inhibition in vivo at 5 mg/kg (ICR mice): 64%
- inhibition in vivo at 5 mg/kg (C57BL/6J mice): 65%

Structure (SMILES): CC(C)(COc1ccc(-c2ccc(-c3ncc(CCC4CC4)[nH]3)cn2)cc1)C(=O)O [Example 30]
- inhibition in vivo at 5 mg/kg (ICR mice): 60%
- inhibition in vivo at 5 mg/kg (C57BL/6J mice): 68%

Structure (SMILES): O=C(O)C1(COc2ccc(-c3ccc(-c4ncc(C(F)(F)F)[nH]4)cn3)cc2)CCCC1 [Example 20]
- inhibition in vivo at 5 mg/kg (ICR mice): 74%
- inhibition in vivo at 5 mg/kg (C57BL/6J mice): 70%

Structure (SMILES): Cc1cc(OCC(C)(C)C(=O)O)ccc1-c1ccc(-c2ncc(C(F)(F)F)[nH]2)cn1 [Example 9]
- inhibition in vivo at 5 mg/kg (ICR mice): 75%
- inhibition in vivo at 5 mg/kg (C57BL/6J mice): 76%

Structure (SMILES): CC(C)(COc1ccc(-c2ccc(-c3ncc(C4CCCCC4)[nH]3)cn2)cc1)C(=O)O [Example 56]
- inhibition in vivo at 5 mg/kg (ICR mice): 61%
- inhibition in vivo at 5 mg/kg (C57BL/6J mice): 76%

Structure (SMILES): Cc1cc(OCC(C)(C)C(=O)O)ncc1-c1ccc(-c2ncc(C(C)(C)C(F)(F)F)[nH]2)nc1 [Example 47]
- inhibition in vivo at 5 mg/kg (ICR mice): 72%
- inhibition in vivo at 5 mg/kg (C57BL/6J mice): 44%

Structure (SMILES): CC(C)(COc1ccc(-c2ccc(-c3ncc(C4(C(F)(F)F)CCC4)[nH]3)cn2)cc1)C(=O)O [Example 88-3), sodium 2,2-dimethyl-3-[4-(5-{5-[1-(trifluoromethyl)cyclobutyl]-1H-imidazol-2-yl}pyridin-2-yl)phenoxy)propanoate]
- inhibition in vivo at 5 mg/kg (ICR mice): 65%
- inhibition in vivo at 5 mg/kg (C57BL/6J mice): 55%

Structure (SMILES): O=C(O)C1(COc2ccc(-c3ccc(-c4ncc(C(F)(F)F)[nH]4)nc3)cn2)CCCC1 [Example 16]
- inhibition in vivo at 5 mg/kg (ICR mice): 74%
- inhibition in vivo at 5 mg/kg (C57BL/6J mice): 75%

Structure (SMILES): CC(C)(COc1ccc(-c2ccc(-c3ncc(C(C)(C)C(F)(F)F)[nH]3)cn2)cc1)C(=O)O [Example 2-2), 2,2-dimethyl-3-(4-{5-[5-(2,2,2-trifluoro-1,1-dimethylethyl)-1H-imidazol-2-yl]pyridin-2-yl}phenoxy)propanoic acid]
- inhibition in vivo at 5 mg/kg (ICR mice): 76%
- inhibition in vivo at 5 mg/kg (C57BL/6J mice): 64%

Structure (SMILES): Cc1cc(OCC(C)(C)C(=O)O)ncc1-c1ccc(-c2ncc(C(F)(F)C(F)(F)F)[nH]2)nc1 [Example 116]
- inhibition in vivo at 5 mg/kg (ICR mice): 82%
- inhibition in vivo at 5 mg/kg (C57BL/6J mice): 76%

Structure (SMILES): CC(C)(COc1ccc(-c2ccc(-c3ncc(C(F)(F)F)[nH]3)cn2)cn1)C(=O)O [Example 13-3), 2,2-dimethyl-3-[[5-[5-[4-(trifluoromethyl)-1H-imidazol-2-yl]-2-pyridyl]-2-pyridyl]oxy]propanoic acid]
- inhibition in vivo at 5 mg/kg (ICR mice): 51%
- inhibition in vivo at 5 mg/kg (C57BL/6J mice): 60%

Structure (SMILES): CC(C)(COc1ncc(-c2ccc(-c3ncc(C(C)(C)C(F)(F)F)[nH]3)cc2)cc1F)C(=O)O [Example 143]
- inhibition in vivo at 5 mg/kg (ICR mice): 55%
- inhibition in vivo at 5 mg/kg (C57BL/6J mice): 4%

Structure (SMILES): CCc1cc(OCC(C)(C)C(=O)O)ccc1-c1ccc(-c2ncc(C(F)(F)F)[nH]2)cn1 [Example 85-4), 3-(3-ethyl-4-{5-[5-(trifluoromethyl)-1H-imidazol-2-yl]pyridin-2-yl}phenoxy)-2,2-dimethylpropanoic acid]
- inhibition in vivo at 5 mg/kg (ICR mice): 69%
- inhibition in vivo at 5 mg/kg (C57BL/6J mice): 70%

Structure (SMILES): Cc1cc(OCC2(C(=O)O)CC2)ccc1-c1ccc(-c2ncc(C(F)(F)F)[nH]2)cn1 [Example 71]
- inhibition in vivo at 5 mg/kg (ICR mice): 50%
- inhibition in vivo at 5 mg/kg (C57BL/6J mice): 29%
